Results published in the supplement of paper PMC10627819.

Experiments:
[1] = tested on: S. aureus DSM 20231; test: fitness (endpoint OD595 vs no drug) (fraction); higher = more growth
Method in brief: (§1)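 Growth medium was TSB, LB Lennox or CY, and plates were kept at 37 °C. Inoculation was at OD595 0.01 in 384-well plates, at 30 µl per well or 55 µl for S. pneumoniae. OD595 was monitored every 30 min for 14 h and background-subtracted using the first reading. Fitness is the optical density on entering stationary phase divided by the robust mean of no-drug controls, with values capped at 1.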

[2] = tested on: S. aureus Newman; test: as above
Method in brief: as §1

[3] = tested on: B. subtilis 168; test: as above
Method in brief: as §1

[4] = tested on: S. aureus DSM 20231; test: Bliss interaction score (quartile over a dose matrix) (fitness difference); higher = more antagonism (negative = synergy)
Method in brief: (§2)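 The Bliss score is observed minus expected fitness, where expected fitness is the product of the single-drug fitness values inferred from the combination data. Fitness is the OD595 at the onset of stationary phase over the plate's robust no-drug mean, capped at 1. Scores are summarised by quartiles over technical, biological and donor/recipient replicates.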

[5] = tested on: S. aureus Newman; test: as above
Method in brief: as §2

[6] = tested on: S. pneumoniae D39V; test: as above
Method in brief: as §2

[7] = tested on: B. subtilis 168; test: as above
Method in brief: as §2
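For Bliss interaction score (quartile over a dose matrix) in this document: first quartile when negative (synergy) and third quartile when positive (antagonism).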
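For fitness (endpoint OD595 vs no drug) in this document: OD595 on entry to stationary phase over no-drug wells; at most 1.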

CC[C@H]1OC(=O)[C@H](C)[C@@H](O[C@H]2C[C@@](C)(OC)[C@@H](O)[C@H](C)O2)[C@H](C)[C@@H](O[C@@H]2O[C@H](C)C[C@H](N(C)C)[C@H]2O)[C@](C)(O)C[C@@H](C)CN(C)[C@H](C)[C@@H](O)[C@]1(C)O [Azithromycin] + COc1ccc(C[C@H](N)C(=O)N[C@H]2[C@@H](O)[C@H](n3cnc4c(N(C)C)ncnc43)O[C@@H]2CO)cc1 [Puromycin]
fitness
Conditions	partner 0.39 µg/mL	partner 0.78 µg/mL	partner 1.56 µg/mL
[1], first compound 0.125 µg/mL	0.849	0.863	0.923
[1], first compound 0.25 µg/mL	0.881	0.936	0.891
[2], first compound 0.125 µg/mL	0.915	0.905	0.945
[2], first compound 0.25 µg/mL	0.884	0.836	0.889
[2], first compound 0.5 µg/mL	0.559	–	0.524
[3], first compound 0.25 µg/mL	0.888	0.913	0.95
[3], first compound 0.5 µg/mL	0.828	0.815	0.82

fitness, [1], one replicate
Conditions	first compound 0.125 µg/mL	first compound 0.25 µg/mL	first compound 0.5 µg/mL
partner 3.12 µg/mL	≥ 1	0.915	0.293
partner 6.24 µg/mL	0.615	0.237	0.0525

Conditions	Bliss interaction score
[4]	-0.0839
[5]	-0.0828
[6]	-0.0719
[7]	-0.0345

CC[C@H]1OC(=O)[C@H](C)[C@@H](O[C@H]2C[C@@](C)(OC)[C@@H](O)[C@H](C)O2)[C@H](C)[C@@H](O[C@@H]2O[C@H](C)C[C@H](N(C)C)[C@H]2O)[C@](C)(O)C[C@@H](C)CN(C)[C@H](C)[C@@H](O)[C@]1(C)O [Azithromycin] + COc1cccc2c1C(=O)c1c(O)c3c(c(O)c1C2=O)C[C@@](O)(C(=O)CO)C[C@@H]3O[C@H]1C[C@H](N)[C@H](O)[C@H](C)O1 [Doxorubicin]
fitness
Conditions	partner 0.625 µg/mL	partner 1.25 µg/mL	partner 2.5 µg/mL
[1], first compound 0.125 µg/mL	0.811	0.794	0.781
[1], first compound 0.25 µg/mL	0.811	0.824	0.778
[1], first compound 0.5 µg/mL	0.62	0.672	0.569
[2], first compound 0.125 µg/mL	0.777	0.775	0.735
[2], first compound 0.25 µg/mL	0.827	0.779	0.77
[2], first compound 0.5 µg/mL	0.659	0.665	0.561
[3], first compound 0.25 µg/mL	0.964	0.92	0.791
[3], first compound 0.5 µg/mL	0.879	0.847	0.767

[3], first compound 2 µg/mL, one replicate
Conditions	fitness
partner 0.625 µg/mL	0.358
partner 1.25 µg/mL	0.176
partner 2.5 µg/mL	0.0297

Conditions	Bliss interaction score
[4]	0.115
[5]	0.0458
[6]	-0.0571
[7]	0.164

CC[C@H]1OC(=O)[C@H](C)[C@@H](O[C@H]2C[C@@](C)(OC)[C@@H](O)[C@H](C)O2)[C@H](C)[C@@H](O[C@@H]2O[C@H](C)C[C@H](N(C)C)[C@H]2O)[C@](C)(O)C[C@@H](C)CN(C)[C@H](C)[C@@H](O)[C@]1(C)O [Azithromycin] + C[C@@H]1O[C@@H]1P(=O)(O)O [Fosfomycin]
fitness
Conditions	partner 0.781 µg/mL	partner 1.562 µg/mL	partner 3.124 µg/mL	partner 6.248 µg/mL
[1], first compound 0.125 µg/mL	0.728	0.615	0.509	–
[1], first compound 0.25 µg/mL	0.68	0.625	0.554	–
[1], first compound 0.5 µg/mL	0.526	0.306	0.124	–
[2], first compound 0.125 µg/mL	0.622	0.525	0.18	–
[2], first compound 0.25 µg/mL	0.597	0.429	0.0915	–
[2], first compound 0.5 µg/mL	0.312	0.128	0.0235	–
[3], first compound 0.25 µg/mL	–	0.713	0.61	0.445
[3], first compound 0.5 µg/mL	–	0.622	0.582	0.442

[3], first compound 2 µg/mL, one replicate
Conditions	fitness
partner 1.562 µg/mL	0.367
partner 3.124 µg/mL	0.176
partner 6.248 µg/mL	0.0795

Conditions	Bliss interaction score
[4]	-0.0651
[5]	-0.12
[6]	0.0708
[7]	0.0745

CC[C@H]1OC(=O)[C@H](C)[C@@H](O[C@H]2C[C@@](C)(OC)[C@@H](O)[C@H](C)O2)[C@H](C)[C@@H](O[C@@H]2O[C@H](C)C[C@H](N(C)C)[C@H]2O)[C@](C)(O)C[C@@H](C)CN(C)[C@H](C)[C@@H](O)[C@]1(C)O [Azithromycin] + C[n+]1ccc(-c2cc[n+](C)cc2)cc1 [Paraquat]
fitness
Conditions	partner 1.25 µg/mL	partner 2.5 µg/mL	partner 5 µg/mL
[1], first compound 0.125 µg/mL	0.827	0.846	0.794
[1], first compound 0.25 µg/mL	0.814	0.75	0.823
[1], first compound 0.5 µg/mL	0.473	0.51	0.514
[2], first compound 0.125 µg/mL	0.924	0.904	0.853
[2], first compound 0.25 µg/mL	0.882	0.845	0.789
[2], first compound 0.5 µg/mL	0.55	0.575	0.496
[3], first compound 0.25 µg/mL	0.947	0.919	0.884
[3], first compound 0.5 µg/mL	0.906	0.866	0.759

Conditions	Bliss interaction score
[4]	-0.095
[5]	-0.0372
[6]	0.0486
[7]	0.0865
